For 35 compounds, IC50 results are on record in patent publication US8211929B2, “Pyrimidine derivatives as kinase modulators and method of use” (Exelixis, Inc., priority 2004, dated 2012).

The target of assay [1] is T1, (Homo sapiens, UniProt P08069).
T1 construct: human IGF1R kinase domain residues M954-C1367; made in house; host or cells: baculovirus expression (insect cells)
The assay is described as follows: IGF1R kinase assay (LCCA), IGF 0P. In kind it is biochemical. The method in brief:
(§1)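 Read-out is percent ATP remaining, detected by luciferase-luciferin luminescence after a 2 h ambient reaction. Reaction contained 4 nM IGF1R kinase domain (residues M954-C1367, baculovirus-made), 3 μM ATP (near KM), 4 μM poly EY, pH 7.5 with Mg2+/Mn2+. Ten inhibitor concentrations; IC50 by Hill-type curve fit.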

The next assay has as its target T2, IGF 3P (Homo sapiens, UniProt P08069).
T2 construct: human IGF1R kinase domain residues M954-C1367; made in house; host or cells: baculovirus expression (insect cells)
Briefly: IGF1R kinase assay (LCCA), IGF 3P. Type of assay: biochemical. The method, boiled down: as §1

Read-outs that look alike come from different tables or passages of the source.

T1 sequence (P08069 954-1367): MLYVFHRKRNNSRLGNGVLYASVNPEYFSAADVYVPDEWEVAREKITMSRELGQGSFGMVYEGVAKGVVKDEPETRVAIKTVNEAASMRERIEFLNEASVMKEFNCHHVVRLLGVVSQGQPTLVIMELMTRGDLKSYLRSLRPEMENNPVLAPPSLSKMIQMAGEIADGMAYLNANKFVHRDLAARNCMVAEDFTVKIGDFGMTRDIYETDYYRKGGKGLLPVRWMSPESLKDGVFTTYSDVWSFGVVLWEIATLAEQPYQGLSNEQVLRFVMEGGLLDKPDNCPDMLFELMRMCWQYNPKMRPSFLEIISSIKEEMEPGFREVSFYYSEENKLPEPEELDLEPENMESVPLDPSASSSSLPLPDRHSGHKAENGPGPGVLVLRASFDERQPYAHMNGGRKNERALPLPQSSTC
T2 sequence (P08069 954-1367): as above

As to `CN(C)C(=O)CCc1ccc(Nc2ncc(Br)c(Nc3cc(C4CC4)n[nH]3)n2)cc1` [Example 76], the IC50 (in assay [1] (IGF1R kinase LCCA assay); at IGF 3P (IGF1R kinase LCCA assay)) was 50 to 500 nM each time.

As to `Cc1cc(Nc2cc(C3CC3)n[nH]2)nc(Nc2cc(Br)cc(C(F)(F)F)c2)n1` [Example 301], the half-maximal inhibitory concentration (IC50) (in assay [1] (IGF1R kinase LCCA assay); against IGF 3P (IGF1R kinase LCCA assay)) was above 5000 nM throughout.

Take `O=[N+]([O-])c1cnc(Nc2ccc(Cl)cc2Cl)nc1Nc1cc(C2CC2)n[nH]1` [Example 331]: the IC50 (in assay [1] (IGF1R kinase LCCA assay); against IGF 3P (IGF1R kinase LCCA assay)) was above 5000 nM throughout.

In the case of `CN1CCN(c2ncc(Br)c(Nc3cc(C4CC4)[nH]n3)n2)CC1` [Example 249], the figures for the concentration for half-maximal inhibition (IC50) (in assay [1] (IGF1R kinase LCCA assay); against IGF 3P (IGF1R kinase LCCA assay)) were above 5000 nM and 500 to 5000 nM, respectively.

For `CCN(CC)CCNc1cc(Nc2cc(C(C)C)[nH]n2)nc(NCc2cc(-c3ccccc3)no2)n1` [Example 592, N^4-[2-(diethylamino)ethyl]-N^6-[5-(1-methylethyl)-1H-pyrazol-3-yl]-N^2-[(3-phenylisoxazol-5-yl)methyl]pyrimidine-2,4,6-triamine], the figures for the concentration for half-maximal inhibition (IC50) (in assay [1]; on IGF 3P) were 50 to 500 nM and below 50 nM, respectively.

In the case of `CN(c1ccccc1)c1ncc(Br)c(Nc2cc(C3CC3)[nH]n2)n1` [Example 223], the IC50 (usually the concentration that gives 50% inhibition) fell in the range of 50 to 500 nM in assay [1] (IGF1R kinase LCCA assay) and 500 to 5000 nM at IGF 3P (IGF1R kinase LCCA assay).

Take `Cc1cc(CNc2nc(Nc3cc(C4CC4)[nH]n3)cc(N3C[C@H]4C[C@@H]3CN4Cc3ccccc3)n2)on1` [Example 635, N^4-(5-cyclopropyl-1H-pyrazol-3-yl)-N^2-[(3-methylisoxazol-5-yl)methyl]-6-[(1R,4R)-5-(phenylmethyl)-2,5-diazabicyclo[2.2.1]hept-2-yl]pyrimidine-2,4-diamine]: the IC50 in assay [1] is 50 to 500 nM; against IGF 3P it was below 50 nM.

For `COc1cc(CNc2ncc(Br)c(Nc3cc(C4CC4)[nH]n3)n2)cc(OC)c1` [Example 187], the half-maximal inhibitory concentration (IC50) (in assay [1] (IGF1R kinase LCCA assay); at IGF 3P (IGF1R kinase LCCA assay)) was 500 to 5000 nM in each case.

As for `CCN(CC)CCNC(=O)c1ccc(Nc2nccc(Nc3cc(C4CC4)n[nH]3)n2)cc1` [Example 184], the IC50 (in assay [1] (IGF1R kinase LCCA assay); against IGF 3P (IGF1R kinase LCCA assay)) was 500 to 5000 nM each time.

Take `O=S(=O)(c1ccc(Nc2ncc(Br)c(Nc3cc(C4CC4)n[nH]3)n2)cc1)N1CCOCC1` [Example 140]: the IC50 in assay [1] (IGF1R kinase LCCA assay) lay within 500 to 5000 nM; on IGF 3P (IGF1R kinase LCCA assay), 50 to 500 nM.

As to `CC(C)c1cc(CNc2ncc(Br)c(Nc3cc(C4CC4)[nH]n3)n2)on1` [Example 65], the IC50 in assay [1] (IGF1R kinase LCCA assay) is 500 to 5000 nM; against IGF 3P (IGF1R kinase LCCA assay), below 50 nM.

For the compound `O=C(c1ccccc1)c1ccccc1Nc1ncc(Br)c(Nc2cc(C3CC3)n[nH]2)n1` [Example 335], the IC50 (in assay [1] (IGF1R kinase LCCA assay); against IGF 3P (IGF1R kinase LCCA assay)) was above 5000 nM each time.

Take `c1ccc(-c2cc(CNc3nc(CN4CCOCC4)cc(Nc4cc(C5CC5)[nH]n4)n3)on2)cc1` [Example 561]: the half-inhibitory concentration (IC50) (in assay [1] (IGF1R kinase LCCA assay); against IGF 3P (IGF1R kinase LCCA assay)) was 50 to 500 nM throughout.

As for `Cc1cc(Nc2cc(C3CC3)n[nH]2)nc(NCc2nc(C(=O)NCCc3ccccc3F)cs2)n1` [Example 571], the half-inhibitory concentration (IC50) (in assay [1] (IGF1R kinase LCCA assay); against IGF 3P (IGF1R kinase LCCA assay)) was 500 to 5000 nM each time.

For `Cc1cc(Nc2cc(C3CC3)n[nH]2)nc(Nc2ccc(C3CCN(C(=O)OC(C)(C)C)CC3)cc2)n1` [Example 566], the half-inhibitory concentration (IC50) (in assay [1] (IGF1R kinase LCCA assay); against IGF 3P (IGF1R kinase LCCA assay)) was 500 to 5000 nM throughout.

Turning to `CC(C)c1cc(Nc2cc(N3CCOCC3)nc(NCc3cc(-c4ccccc4)no3)n2)n[nH]1` [Example 496], the 50% inhibitory concentration (IC50) in assay [1] (IGF1R kinase LCCA assay) was 50 to 500 nM; on IGF 3P (IGF1R kinase LCCA assay), below 50 nM.

As to `COc1ccccc1CNc1nc(C)cc(Nc2cc(C3CC3)[nH]n2)n1` [Example 207], the concentration for half-maximal inhibition (IC50) (in assay [1] (IGF1R kinase LCCA assay); against IGF 3P (IGF1R kinase LCCA assay)) was 500 to 5000 nM each time.

As for `Cc1cc(CNc2nc(Nc3cc(C4CC4)[nH]n3)cc(NC3CC4CCC(C3)N4C)n2)on1` (stereo not shown) [Example 630, N^4-(5-cyclopropyl-1H-pyrazol-3-yl)-N^6-(8-methyl-8-azabicyclo[3.2.1]oct-3-yl)-N^2-[(3-methylisoxazol-5-yl)methyl]pyrimidine-2,4,6-triamine], the IC50 in assay [1] is 50 to 500 nM; against IGF 3P it was below 50 nM.

Turning to `NS(=O)(=O)c1ccc(Nc2ncc(Br)c(Nc3cc(C4CC4)n[nH]3)n2)cc1` [Example 91], the half-inhibitory concentration (IC50) (in assay [1] (IGF1R kinase LCCA assay); against IGF 3P (IGF1R kinase LCCA assay)) was 50 to 500 nM each time.

For `c1cc(-c2cc(CNc3nc(Nc4cc(C5CC5)[nH]n4)cc(N4CCOCC4)n3)on2)ncn1` [Example 637, N^4-(5-cyclopropyl-1H-pyrazol-3-yl)-6-morpholin-4-yl-N^2-[(3-pyrimidin-4-ylisoxazol-5-yl)methyl]pyrimidine-2,4-diamine], the half-maximal inhibitory concentration (IC50) in assay [1] was 50 to 500 nM; against IGF 3P it was below 50 nM.

Regarding `c1ccc(-c2cc(CNc3nc(Nc4cc(C5CC5)n[nH]4)cc(N4CCCC4)n3)on2)cc1` [Example 12], the IC50 (in assay [1] (IGF1R kinase LCCA assay); against IGF 3P (IGF1R kinase LCCA assay)) was 50 to 500 nM in each case.

As for `Cc1cc(Nc2cc(C3CC3)[nH]n2)nc(NCc2cc(-c3ccc(F)cc3)no2)n1` [Example 500], the half-maximal inhibitory concentration (IC50) was 50 to 500 nM in assay [1] (IGF1R kinase LCCA assay) and below 50 nM against IGF 3P (IGF1R kinase LCCA assay).

As to `Brc1cnc(NCc2nccs2)nc1Nc1cc(C2CC2)[nH]n1` [Example 179], the IC50 (in assay [1] (IGF1R kinase LCCA assay); against IGF 3P (IGF1R kinase LCCA assay)) was 500 to 5000 nM throughout.

Regarding `Cc1cc(CNc2nc(Nc3cc(C4CC4)n[nH]3)cc(N3CCN(C)CC3)n2)on1` [Example 602, N^4-(3-cyclopropyl-1H-pyrazol-5-yl)-N^2-[(3-methylisoxazol-5-yl)methyl]-6-(4-methylpiperazin-1-yl)pyrimidine-2,4-diamine], the values for the IC50 (in assay [1]; on IGF 3P) were 50 to 500 nM and below 50 nM, respectively.

In the case of `Cc1cc(Nc2cc(C3CC3)n[nH]2)nc(Nc2cc(F)cc(F)c2)n1` [Example 259], the figures for the half-inhibitory concentration (IC50) (in assay [1] (IGF1R kinase LCCA assay); against IGF 3P (IGF1R kinase LCCA assay)) were 500 to 5000 nM and above 5000 nM, respectively.

As for `CC(C)c1cc(Nc2cc(OCCN(C)C)nc(NCc3cc(-c4ccccc4)no3)n2)n[nH]1` [Example 518], the half-inhibitory concentration (IC50) in assay [1] (IGF1R kinase LCCA assay) is 50 to 500 nM; against IGF 3P (IGF1R kinase LCCA assay), below 50 nM.

In the case of `Cc1cc(Nc2cc(C3CC3)[nH]n2)nc(NCc2cc(-c3cccc(Br)c3)no2)n1` [Example 542], the IC50 (in assay [1] (IGF1R kinase LCCA assay); against IGF 3P (IGF1R kinase LCCA assay)) was 50 to 500 nM each time.

With `Cc1cc(CNc2nc(Nc3cc(C4CC4)n[nH]3)cc(N3CCOCC3)n2)on1` [Example 601, N^4-(3-cyclopropyl-1H-pyrazol-5-yl)-N^2-[(3-methylisoxazol-5-yl)methyl]-6-morpholin-4-ylpyrimidine-2,4-diamine], the IC50 was 50 to 500 nM in assay [1] and below 50 nM against IGF 3P.

Regarding `c1ccc(CN2CCc3c(nc(Nc4ccc(N5CCOCC5)cc4)nc3Nc3cc(C4CC4)[nH]n3)C2)cc1` [Example 281], the IC50 (in assay [1] (IGF1R kinase LCCA assay); at IGF 3P (IGF1R kinase LCCA assay)) was above 5000 nM throughout.

As to `Nc1ncnc2c1c(-c1cccc(OCc3ccccc3)c1)cn2C1CCCCC1` [Example 350], the 50% inhibitory concentration (IC50) is above 5000 nM in assay [1] (IGF1R kinase LCCA assay) and 500 to 5000 nM on IGF 3P (IGF1R kinase LCCA assay).

As for `Fc1cnc(Nc2ccccc2Cl)nc1Nc1cc(C2CC2)[nH]n1` [Example 168], the IC50 was 50 to 500 nM in assay [1] (IGF1R kinase LCCA assay) and 500 to 5000 nM at IGF 3P (IGF1R kinase LCCA assay).

For the compound `Fc1c(Cl)cccc1Nc1ncc(Br)c(Nc2cc(C3CC3)n[nH]2)n1` [Example 241], the IC50 (in assay [1] (IGF1R kinase LCCA assay); against IGF 3P (IGF1R kinase LCCA assay)) was 500 to 5000 nM throughout.

As for `CC(=O)N1CCC(n2cc(-c3cccc(OCc4ccccc4)c3)c3c(N)ncnc32)CC1` [Example 349], the 50% inhibitory concentration (IC50) (in assay [1] (IGF1R kinase LCCA assay); at IGF 3P (IGF1R kinase LCCA assay)) was above 5000 nM each time.

As for `Cc1cc(Nc2cc(C3CC3)[nH]n2)nc(NCc2cc(C(C)C)no2)n1` [Example 50], the half-maximal inhibitory concentration (IC50) is 500 to 5000 nM in assay [1] (IGF1R kinase LCCA assay) and below 50 nM at IGF 3P (IGF1R kinase LCCA assay).

Turning to `c1cc(N2CCOCC2)ccc1Nc1nc2c(c(Nc3cc(C4CC4)[nH]n3)n1)CCNC2` [Example 282], the 50% inhibitory concentration (IC50) (in assay [1] (IGF1R kinase LCCA assay); against IGF 3P (IGF1R kinase LCCA assay)) was above 5000 nM in each case.
